Assay results taken from patent US9353089B2, “Compositions and methods for the treatment of malaria” (Saint Louis University, priority 2013, dated 2016).
Where two headings read alike, the source gives them in different places. Non-standard residues stand in square brackets, D forms with d. Residues, ends and D or L forms follow the SMILES beside them. *: point of attachment. Sta = CC(C)C[C@H](N)[C@@H](O)CC(=O)O; Isovaleryl = CC(C)CC(=O)*

Tests used:
[1] = tested on: Plasmodium chabaudi ASS and ASCQ strains; assay: In vivo antimalarial efficacy 4-day suppressive test; settings: NIH mice, 4.5 mpk orally once daily for four days, Day 4 postinoculation
Method: Briefly, NIH mice (n=8 per group) were inoculated i.p. with 2×10^7 parasitized (Plasmodium chabaudi ASS or ASCQ) red blood cells. […] Groups (n=6) including a vehicle control and chloroquine (CQ) as a reference drug were included. Parasitemia levels were determined on the day following the last treatment (Day 4).

[2] = molecular target: recombinant human Cathepsin E (Homo sapiens (Human), UniProt P14091); assay: Cathepsin E enzyme inhibition FRET assay; format: biochemical; settings: Table 8; read-out: CatE IC50
Method: (§1) The enzymatic inhibition activity assays were determined using the fluorescence resonance energy transfer (FRET) assay. The assays were performed in a 384-well plate format. […] The concentration of Cathepsin D was 20 ng/μL, and 1 ng/μL of Cathepsin E was used. CatD and CatE were activated by incubation in assay buffer (0.1 M NaOAc, 0.2 M NaCl, pH 3.5) at room temperature for 30 min. Subsequently, the rhBACE-1 substrate (R&D Systems, catalog# ES004), the Cathepsin D and Cathepsin E substrate (R&D Systems, Catalog # ES001) were added accordingly to final concentration 20 μM to initiate the reaction. After 60 min incubation at room temperature, the time-resolved fluorescence at Ex/Em=360 nm/460 nm was measured on an EnVision multilabel plate reader (Perkin-Elmer). The analytical software, GraphPad Prism 5.0 (GraphPad Software, Inc., USA) was used to generate IC50 values via non-linear regression analysis, which are reported in Tables 8-13 below as BACE1 IC50 values.

[3] = molecular target: Plasmepsin (PM-4; Plm IV) (Plasmodium falciparum (isolate 3D7), UniProt Q8IM16); assay: Plasmepsin-4 enzyme inhibition assay; format: biochemical; settings: Table 8
Method: Plasmepsin-2 (PM-2; Plm II) and Plasmepsin (PM-4; Plm IV) expression and purification was performed following the published protocols (Istvan E S and Goldberg D E, 2005). The final purified protein was activated by diluting the protein to 0.3 mg/mL in activating buffer (0.1 M citrate pH 4.5, 0.1% Tween-20, 50 mM dithiothreitol) and incubated at room temperature for 40 min, then the activated enzyme was diluted in assay buffer (50 mM sodium acetate pH 4.7, 0.01% Tween-20). The enzymatic inhibition reaction was performed in 384 well plates with a total volume of 20 μl. 10 μl of diluted PM-2 or PM-4 enzyme was added to the 384-well plate except blank wells (blank wells add 10 μL of assay buffer) and 20 nL of serials of diluted 1000× compounds were added to the wells with 520 Echo® Liquid Handling System (Labcyte Inc.). 10 μL PM-2 peptide substrate (AnaSpec, Cat#, 62050) with assay buffer was then added to final concentration of 20 μM to start the reaction. After incubation the reaction at room temperature for 60 min, the fluorescence intensity at Ex/Em=360 nm/535 nm was measured using EnVision multilabel plate reader (Perkin-Elmer). The IC50 values were obtained using Graph Pad Prism 4 and are reported in Tables 8 and 9 below as PM-2 IC50 values.

[4] = molecular target: Plasmepsin-2 (PM-2; Plm II) (Plasmodium falciparum (isolate HB3), UniProt P46925); assay: Plasmepsin-2 enzyme inhibition assay; format: biochemical
In short: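 Enzymes activated in pH 4.5 citrate/DTT buffer, then assayed in 50 mM sodium acetate pH 4.7, 0.01% Tween-20. Compounds added before fluorogenic peptide substrate (final 20 µM); 60 min at room temperature, fluorescence Ex/Em 360/535 nm, IC50 by curve fit.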

[5] = tested on: Plasmodium falciparum 3D7 (CQ-sensitive); assay: In vitro antimalarial assay (malaria SYBR Green I-based fluorescence, MSF), 3D7; format: cell-based
In short: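 Asynchronous P. falciparum 3D7 cultures (0.5% parasitemia, 2% hematocrit) were exposed to serially diluted compounds, in quadruplicate. Growth was then quantified by SYBR Green I fluorescence after adding lysis buffer containing 0.2 μL/mL dye.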

recombinant human BACE1 [6] = molecular target: recombinant human BACE1 (Homo sapiens, UniProt P56817); assay: β-Secretase (BACE1) enzyme inhibition FRET assay; format: biochemical
In short: (§2)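 FRET cleavage by rhBACE1 with substrate at 20 μM final, 60 min at room temperature. Time-resolved fluorescence read at Ex/Em 360/460 nm. IC50 obtained by non-linear regression.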

[7] = molecular target: recombinant human Cathepsin D (Homo sapiens (Human), UniProt P07339); assay: Cathepsin D enzyme inhibition FRET assay; format: biochemical; settings: for IC50: Table 8, read-out: CatD IC50
Method: as §1

recombinant human BACE1 [8] = assay: β-Secretase (BACE1) enzyme inhibition FRET assay; format: biochemical
In short: as §2

[9] = tested on: Plasmodium falciparum Dd2 (multi-drug resistant); assay: In vitro antimalarial assay (malaria SYBR Green I-based fluorescence, MSF), Dd2; format: cell-based; settings: DD2, read-out: Dd2 IC50 (μM)
Method: In vitro antimalarial activity was determined by a malaria SYBR Green I-based fluorescence (MSF) method described previously by Smilkstein et al. (2004, which is incorporated herein by reference) with slight modification (Winter, et al., 2006, which is incorporated herein by reference). Stock solutions of each test drug were prepared in DMSO at a concentration of 20 mM. The drug solutions were serially diluted with culture medium and distributed to asynchronous parasite cultures on 96-well plates in quadruplicate in a total volume of 100 μL to achieve 0.5% parasitemia with a 2% hematocrit in a total volume of 100 pt. The plates were then incubated for 72 h at 37° C. After incubation, 100 μL of lysis buffer with 0.2 μL/mL SYBR Green I was added to each well. The plates were incubated at 37° C. for an hour in the dark and then placed in a 96-well fluorescence plate reader (Spectramax Gemini-EM; Molecular Diagnostics) with excitation and emission wavelengths at 497 nm and 520 nm, respectively, for measurement of fluorescence.
Antimalarial potency of compounds was determined by this technique for both Plasmodium falciparum 3D7 (CQ-sensitive) and Dd2 (multi-drug resistant) strains.

Plasmepsin V (PM-V) = Plasmepsin V (PM-V) (Plasmodium falciparum (isolate 3D7), UniProt Q8I6Z5); settings: known inhibitors, background; cited from earlier work
[10] = 3D7, read-out: 3D7 IC50 (μM), Table 13
[11] = 3D7, read-out: Pf 3D7 IC50 (μM), Table 11
[12] = 3D7, read-out: Pf 3D7 IC50, Table 8
[13] = 3D7, read-out: 3D7 IC50 (μM), Table 12
[14] = ratio of BACE1 IC50 to PM-2 IC50

Sequence of Plasmepsin (PM-4; Plm IV) (Q8IM16 122-449 limits assumed): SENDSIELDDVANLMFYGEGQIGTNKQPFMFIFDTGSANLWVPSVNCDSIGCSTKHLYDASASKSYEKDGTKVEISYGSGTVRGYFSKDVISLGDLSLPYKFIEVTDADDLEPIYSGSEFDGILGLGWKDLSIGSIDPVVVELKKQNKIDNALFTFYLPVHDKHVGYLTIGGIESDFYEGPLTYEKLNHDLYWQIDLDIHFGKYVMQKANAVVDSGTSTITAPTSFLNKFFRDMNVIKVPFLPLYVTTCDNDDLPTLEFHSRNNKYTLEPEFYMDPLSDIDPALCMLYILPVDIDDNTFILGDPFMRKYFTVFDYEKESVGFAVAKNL
Sequence of recombinant human Cathepsin E (P14091 54-396): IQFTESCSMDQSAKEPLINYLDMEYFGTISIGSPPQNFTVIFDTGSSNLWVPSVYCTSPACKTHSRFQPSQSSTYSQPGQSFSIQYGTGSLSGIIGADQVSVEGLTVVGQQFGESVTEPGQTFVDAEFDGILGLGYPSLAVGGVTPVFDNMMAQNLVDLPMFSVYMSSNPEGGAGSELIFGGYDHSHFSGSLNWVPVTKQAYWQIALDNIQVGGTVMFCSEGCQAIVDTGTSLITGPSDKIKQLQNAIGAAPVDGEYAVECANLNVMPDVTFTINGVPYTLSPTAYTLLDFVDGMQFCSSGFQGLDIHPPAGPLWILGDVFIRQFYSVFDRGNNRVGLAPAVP
Sequence of recombinant human Cathepsin D (P07339 65-412): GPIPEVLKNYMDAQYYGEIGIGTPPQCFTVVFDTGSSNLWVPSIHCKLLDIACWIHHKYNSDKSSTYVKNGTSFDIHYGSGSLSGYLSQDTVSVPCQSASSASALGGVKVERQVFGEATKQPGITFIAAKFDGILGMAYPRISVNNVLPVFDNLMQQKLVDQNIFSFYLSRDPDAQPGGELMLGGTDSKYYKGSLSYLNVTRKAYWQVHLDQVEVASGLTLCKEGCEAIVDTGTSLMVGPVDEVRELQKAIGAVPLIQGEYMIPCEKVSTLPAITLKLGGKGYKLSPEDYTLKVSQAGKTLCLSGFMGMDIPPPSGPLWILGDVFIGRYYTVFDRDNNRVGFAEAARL
Sequence of recombinant human BACE1 (Homo sapiens, UniProt P56817) (P56817 46-501 limits assumed): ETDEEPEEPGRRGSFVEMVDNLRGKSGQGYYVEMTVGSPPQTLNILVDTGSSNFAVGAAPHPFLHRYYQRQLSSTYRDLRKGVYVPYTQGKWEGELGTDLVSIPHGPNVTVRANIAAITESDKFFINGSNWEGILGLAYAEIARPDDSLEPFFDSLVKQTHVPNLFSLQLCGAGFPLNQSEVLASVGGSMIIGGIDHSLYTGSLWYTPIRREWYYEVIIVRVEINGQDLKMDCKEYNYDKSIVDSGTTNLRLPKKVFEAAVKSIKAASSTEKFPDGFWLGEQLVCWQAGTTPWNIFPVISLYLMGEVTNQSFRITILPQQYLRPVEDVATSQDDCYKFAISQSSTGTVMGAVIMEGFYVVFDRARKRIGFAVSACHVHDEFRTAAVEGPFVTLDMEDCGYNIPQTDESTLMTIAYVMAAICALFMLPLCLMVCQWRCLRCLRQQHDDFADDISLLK
Sequence of Plasmepsin-2 (PM-2; Plm II) (P46925 125-453 limits assumed): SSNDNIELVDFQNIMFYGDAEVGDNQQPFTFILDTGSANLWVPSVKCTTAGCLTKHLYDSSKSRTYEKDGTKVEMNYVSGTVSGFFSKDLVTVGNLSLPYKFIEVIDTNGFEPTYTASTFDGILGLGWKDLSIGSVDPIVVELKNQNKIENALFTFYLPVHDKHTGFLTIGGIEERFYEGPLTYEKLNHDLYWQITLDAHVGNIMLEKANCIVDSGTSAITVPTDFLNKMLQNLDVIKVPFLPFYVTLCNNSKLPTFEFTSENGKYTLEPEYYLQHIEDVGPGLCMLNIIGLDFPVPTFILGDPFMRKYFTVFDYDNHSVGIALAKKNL

Structure (SMILES): CCN(CC)CCCC(C)Nc1ccnc2cc(Cl)ccc12 (centres unmarked) [CQ, chloroquine, reference compound]
- % Inhibition of parasitemia [1]: 99.99%

Structure (SMILES): COc1cccc(C2(c3cccc(OC)c3)NC(=N)N(C3CCCCC3)C2=O)c1 [Example 128, 3-cyclohexyl-2-imino-5,5-bis(3-methoxyphenyl)-imidazolidin-4-one]
- IC50 [2]: 1860 nM
- IC50 [3]: 41 nM
- IC50 ([4]; Table 8, read-out: PM-II IC50): 36 nM
- IC50 ([4]; Table 13, read-out: PM-2 IC50): 35.9 nM
- IC50 [5, 10]: 0.768 µM
- IC50 [5, 11]: 0.768 µM
- IC50 [5, 12]: 0.768 µM
- IC50 (recombinant human BACE1 [6]; Table 8, read-out: BACE IC50): 28900 nM
- IC50 (recombinant human BACE1 [6]; Table 13, read-out: BACE1 IC50): 28900 nM
- IC50 [7]: 1100 nM

Structure (SMILES): N=C1NC(c2ccccc2)(c2cccc(-c3cccnc3)c2)C(=O)N1C1CCCCC1 (centres unmarked) [Example 136, 3-cyclohexyl-2-imino-5-phenyl-5-[3-(pyridin-3-yl)-phenyl]imidazolidin-4-one]
- IC50 [2]: > 10000 nM
- IC50 [3]: 31 nM
- IC50 ([4]; Table 8, read-out: PM-II IC50): 13 nM
- IC50 ([4]; Table 12, read-out: PM-2 IC50): 13 nM
- IC50 ([4]; Table 13, read-out: PM-2 IC50): 13 nM
- IC50 [5, 13]: 0.75 µM
- IC50 [5, 10]: 0.75 µM
- IC50 [5, 11]: 0.75 µM
- IC50 [5, 12]: 0.75 µM
- selectivity for PM-II over BACE (recombinant human BACE1 [8]): > 1000 fold
- BACE1/PM2 Ratio (recombinant human BACE1 [8]; [14]): 1392
- IC50 (recombinant human BACE1 [6]; Table 8, read-out: BACE IC50): 1680 nM
- IC50 (recombinant human BACE1 [6]; Table 12, read-out: BACE1 IC50): 18100 nM
- IC50 (recombinant human BACE1 [6]; Table 13, read-out: BACE1 IC50): 18100 nM
- selectivity for PM-II over CatD [7]: > 1000 fold
- IC50 [7]: > 10000 nM

Structure (SMILES): COc1ccc(C2(c3cccc(-c4cccnc4)c3)NC(=N)N(C3CCCCC3)C2=O)cc1 (centres unmarked) [Example 171, 3-cyclohexyl-2-imino-5-(4-methoxyphenyl)-5-[3-(pyridin-3-yl)phenyl]-imidazolidin-4-one]
- IC50 [2]: 4010 nM
- IC50 [3]: 7 nM
- IC50 ([4]; Table 8, read-out: PM-II IC50): 7 nM
- IC50 ([4]; Table 13, read-out: PM-2 IC50): 6.97 nM
- IC50 [5, 10]: 0.595 µM
- IC50 [5, 11]: 0.595 µM
- IC50 [5, 12]: 0.595 µM
- IC50 (recombinant human BACE1 [6]; Table 8, read-out: BACE IC50): ~7150 nM
- IC50 (recombinant human BACE1 [6]; Table 13, read-out: BACE1 IC50): ~7150 nM
- IC50 [7]: ~14900 nM

Structure (SMILES): COc1ccc(C2(c3ccc(OC)cc3)NC(=N)N(CC3CCCCC3)C2=O)cc1 [Example 221, 3-(cyclohexylmethyl)-2-imino-5,5-bis(4-methoxyphenyl)-imidazolidin-4-one]
- IC50 [9]: 0.367 µM
- IC50 ([4]; Table 13, read-out: PM-2 IC50): 2.39 nM
- IC50 [5, 10]: 0.207 µM
- IC50 ([5]; 3D7, read-out: Pf3D7 IC50 (μM), Table 10): 0.383 µM
- IC50 (recombinant human BACE1 [6]; Table 13, read-out: BACE1 IC50): 6010 nM

Structure (SMILES): COc1cccc(-c2cccc(C3(c4ccccc4)NC(=N)N(C4CCOCC4)C3=O)c2)c1 (centres unmarked) [Example 324, 2-imino-5-[3-(3-methoxyphenyl)-phenyl]-3-(oxan-4-yl)-5-phenylimidazolidin-4-one]
- IC50 ([4]; Table 12, read-out: PM-2 IC50): 11.3 nM
- IC50 ([4]; Table 13, read-out: PM-2 IC50): 11.3 nM
- IC50 [5, 13]: 1.46 µM
- IC50 [5, 10]: 1.46 µM
- BACE1/PM2 Ratio (recombinant human BACE1 [8]; [14]): 218
- IC50 (recombinant human BACE1 [6]; Table 12, read-out: BACE1 IC50): 2460 nM
- IC50 (recombinant human BACE1 [6]; Table 13, read-out: BACE1 IC50): 2460 nM

Structure (SMILES): COc1cccc(-c2cccc(C3(c4ccccc4)NC(=N)N(C4CCCCC4)C3=O)c2)c1 (centres unmarked) [Example 326, 3-cyclohexyl-2-imino-5-[3-(3-methoxyphenyl)phenyl]-5-phenylimidazolidin-4-one]
- IC50 ([4]; Table 12, read-out: PM-2 IC50): 33.1 nM
- IC50 ([4]; Table 13, read-out: PM-2 IC50): 33.1 nM
- IC50 [5, 13]: 1.34 µM
- IC50 [5, 10]: 1.34 µM
- BACE1/PM2 Ratio (recombinant human BACE1 [8]; [14]): ~270
- IC50 (recombinant human BACE1 [6]; Table 12, read-out: BACE1 IC50): ~9000 nM
- IC50 (recombinant human BACE1 [6]; Table 13, read-out: BACE1 IC50): ~8900 nM

Structure (SMILES): COc1cccc(-c2cccc(C3(C4CC4)NC(=N)N(C4CCCCC4)C3=O)c2)c1 (centres unmarked) [Example 328, 3-cyclohexyl-5-cyclopropyl-2-imino-5-[3-(3-methoxyphenyl)-phenyl]imidazolidin-4-one]
- IC50 ([4]; Table 12, read-out: PM-2 IC50): 104 nM
- IC50 ([4]; Table 13, read-out: PM-2 IC50): 104 nM
- IC50 [5, 10]: 0.746 µM
- BACE1/PM2 Ratio (recombinant human BACE1 [8]; [14]): 67
- IC50 (recombinant human BACE1 [6]; Table 12, read-out: BACE1 IC50): ~7000 nM
- IC50 (recombinant human BACE1 [6]; Table 13, read-out: BACE1 IC50): ~6800 nM

Structure (SMILES): COc1cccc(-c2cccc(C3(C4CC4)NC(=N)N(C4CCOCC4)C3=O)c2)c1 (centres unmarked) [Example 329, 5-cyclopropyl-2-imino-5-[3-(3-methoxyphenyl)-phenyl]-3-(oxan-4-yl)imidazolidin-4-one]
- IC50 ([4]; Table 12, read-out: PM-2 IC50): 83.1 nM
- IC50 ([4]; Table 13, read-out: PM-2 IC50): 83.1 nM
- IC50 [5, 13]: 0.746 µM
- IC50 [5, 10]: 0.621 µM
- BACE1/PM2 Ratio (recombinant human BACE1 [8]): 48
- IC50 (recombinant human BACE1 [6]; Table 12, read-out: BACE1 IC50): ~4000 nM
- IC50 (recombinant human BACE1 [6]; Table 13, read-out: BACE1 IC50): ~3600 nM

Structure (SMILES): CCC(CN1C(=N)NC(c2ccccc2)(c2ccccc2)C1=O)c1ccccc1 (centres unmarked) [drawing 192]
- IC50 [2]: 99 nM
- IC50 [3]: 45 nM
- IC50 ([4]; Table 8, read-out: PM-II IC50): 12 nM
- IC50 [5, 12]: 2.76 µM
- IC50 (recombinant human BACE1 [6]; Table 8, read-out: BACE IC50): 2300 nM
- IC50 [7]: 385 nM

Structure (SMILES): Cc1cccc(C)c1OCC(=O)N[C@@H](Cc1ccccc1)[C@@H](O)C[C@H](Cc1ccccc1)NC(=O)[C@H](C(C)C)N1CCCNC1=O [lopinavir]
- IC50 (Plasmepsin V (PM-V)): > 20000 nM

Structure (SMILES): CC(C)CC(=O)N[C@H](C(=O)N[C@H](C(=O)N[C@@H](CC(C)C)[C@@H](O)CC(=O)N[C@@H](C)C(=O)N[C@@H](CC(C)C)[C@@H](O)CC(=O)O)C(C)C)C(C)C [pepstatin A] (Isovaleryl-VV[Sta]A[Sta]-OH)
- IC50 (Plasmepsin V (PM-V)): > 20000 nM
